According to publication PMC12382614, “(Oxidopyridyl)Porphyrins of Different Lipophilicity: Photophysical Properties, ROS Production and Phototoxicity on Melanoma Cells Under CoCl2-Induced Hypoxia” (Antioxidants, 2025):
Like-named read-outs stand apart in the source and are kept apart here.

Columns and labels:
[1] = UV-Vis absorption spectra in MeOH; type: physicochemical
Protocol: (§1) The absorption spectra of (oxidopyridyl)porphyrins were recorded in HPLC grade MeOH on a Cary UV 60 (Agilent Technologies, Santa Clara, CA, USA), in a wavelength range of 300–700 nm. The fluorescence spectra in HPLC grade MeOH were recorded on a Cary Eclipse (Agilent Technologies) in a wavelength range of 500–800 nm after excitation at the Soret band wavelength (λ ~ 420 nm). The slits of the spectrometer were set to a bandpass of 5 nm for the excitation and 5 nm for the emission. To calculate the fluorescence quantum yields, the measurements were conducted on an FS5 Edinburgh Instruments spectrometer. Prior to taking the measurements, the solutions were purged with high-purity N2 for at least 15 min. The absorbance of the solutions was set to A < 0.1 at 405 nm and 550 nm, which settings were used for the excitation process. Emission was recorded from 550 to 800 nm, with slits set to the bandpass corresponding to 2 nm for the excitation, and 3 nm for the emission. Fluorescence quantum yield (ΦFL) was calculated in comparison to the tetraphenylporphyrin (TPP; ΦFL = 0.11 [23]) as a standard, according to Equation (S1) and following an equation previously described elsewhere.

[2] = Fluorescence spectra and fluorescence quantum yield in MeOH; type: physicochemical; settings: excitation at Soret band
Protocol: as §1

A375 = assay: Photocytotoxicity, MTT assay; type: cell-based, human; settings: red light 643 nm 30 min; for IC50: 6 h incubation; for SI (IC50 (HDF) / IC50 (melanoma cells)) A375 100 µM CoCl2: CoCl2-induced hypoxia; for SI (IC50 (HDF) / IC50 (melanoma cells)) A375 No CoCl2: normoxia
Protocol: (§2) For (photo)cytotoxicity assays, stock solutions of porphyrins were prepared in DMSO and dissolved in DMEM to the final concentrations. The porphyrin incubation time was 6h. Irradiation of the cells was with red light (λ = 643 nm) for 30 min (light dose, 3.6 J/cm^2). Nonirradiated cells were used to test the dark toxicity. All measurements were performed in three individual experiments, and the results are shown as the proliferation (%) of the cells and were calculated as IC50 values.
(§3) The cytotoxicity of (oxidopyridyl)porphyrins was assessed by an MTT assay on the HDF, MeWo and A375 cell lines after 6 h of incubation with porphyrins, without irradiation, or after 30 min of irradiation with red light (λ = 643 nm), and under conditions of normoxia or hypoxia. To induce hypoxia, 100 µM of CoCl2 was added at least two hours before the porphyrins. […] Oxygen is also one of the substrates for the activity of prolyl hydroxylases; therefore, in both cases, the result is the blockage of hydroxylation of HIF-1α and, consequently, its increase and stabilisation, which, in the case of CoCl2-induced hypoxia, can be maintained for several hours.

HDF = assay: Photocytotoxicity, MTT assay; type: cell-based, human; settings: 6 h incubation, red light 643 nm 30 min
Protocol: as §2, §3

MeWo = assay: Photocytotoxicity, MTT assay; type: cell-based, human; settings: red light 643 nm 30 min; for IC50: 6 h incubation; for SI (IC50 (HDF) / IC50 (melanoma cells)) MeWo 100 µM CoCl2: CoCl2-induced hypoxia; for SI (IC50 (HDF) / IC50 (melanoma cells)) MeWo No CoCl2: normoxia
Protocol: as §2, §3

[3] = test system: HDF, MeWo and A375 cell lines; assay: (Photo)cytotoxicity MTT assay, statements made for all cell lines; type: cell-based, human; settings: irradiation 643 nm
Protocol: as §2, §3

[4] = Homo sapiens, A-375, light or radiation study, 3.6 J/cm^2, 100 μM CoCl2 at least 2 h before porphyrin, read-out: IC50 A375 CoCl2
[5] = Homo sapiens, A-375, light or radiation study, 3.6 J/cm^2, normoxia, read-out: IC50 A375 No CoCl2
[6] = Homo sapiens, HDF, light or radiation study, 3.6 J/cm^2, 100 μM CoCl2 at least 2 h before porphyrin, read-out: IC50 HDF CoCl2
[7] = Homo sapiens, HDF, light or radiation study, 3.6 J/cm^2, normoxia, read-out: IC50 HDF No CoCl2
[8] = Homo sapiens, MeWo, light or radiation study, 3.6 J/cm^2, 100 μM CoCl2 at least 2 h before porphyrin, read-out: IC50 MeWo CoCl2
[9] = Homo sapiens, MeWo, light or radiation study, 3.6 J/cm^2, normoxia, read-out: IC50 MeWo No CoCl2
[10] = 3.6 J/cm^2, 100 μM CoCl2 at least 2 h before porphyrin, read-out: IC50 A375 CoCl2
[11] = 3.6 J/cm^2, normoxia, read-out: IC50 A375 No CoCl2
[12] = 3.6 J/cm^2, 100 μM CoCl2 at least 2 h before porphyrin, read-out: IC50 HDF CoCl2
[13] = 3.6 J/cm^2, normoxia, read-out: IC50 HDF No CoCl2
[14] = 3.6 J/cm^2, 100 μM CoCl2 at least 2 h before porphyrin, read-out: IC50 MeWo CoCl2
[15] = 3.6 J/cm^2, normoxia, read-out: IC50 MeWo No CoCl2

Row | ε Qx (0-0) [1] [M⁻¹ cm⁻¹] | ε Qx (1-0) [1] [M⁻¹ cm⁻¹] | ε Qy (0-0) [1] [M⁻¹ cm⁻¹] | ε Qy (1-0) [1] [M⁻¹ cm⁻¹] | ε Soret (B) [1] [M⁻¹ cm⁻¹] | λabs Qx (0-0) [1] [nm] | λabs Qx (1-0) [1] [nm] | λabs Qy (0-0) [1] [nm] | λabs Qy (1-0) [1] [nm] | λabs Soret (B) [1] [nm] | λFL Q(0,0) [2] [nm] | λFL Q(0,1) [2] [nm] | SMILES | IC50 (A375; [4]) [nM] | IC50 (A375; [5]) [nM] | SI (IC50 (HDF) / IC50 (melanoma cells)) A375 100 µM CoCl2 (A375) | SI (IC50 (HDF) / IC50 (melanoma cells)) A375 No CoCl2 (A375) | IC50 (HDF; [6]) [nM] | IC50 (HDF; [7]) [nM] | SI (IC50 (HDF) / IC50 (melanoma cells)) MeWo 100 µM CoCl2 (MeWo) | SI (IC50 (HDF) / IC50 (melanoma cells)) MeWo No CoCl2 (MeWo) | also measured
1 | 1500 | 4900 | 5100 | 15400 | 296400 | 645 | 588 | 548 | 512 | 417 | 648 | 713 | CCCCCCCCCC(=O)Nc1ccc(-c2c3nc(c(-c4ccc[n+]([O-])c4)c4ccc([nH]4)c(-c4ccc[n+]([O-])c4)c4nc(c(-c5ccc[n+]([O-])c5)c5ccc2[nH]5)C=C4)C=C3)cc1 [TOPyP3-C9H19, 5-(4-Decanamidophenyl)-10,15,20-tris(1-oxido-3-pyridyl)porphyrin] | 5460 ± 1480 | 3870 ± 450 | 1.4 | 0.9 | 7650 ± 60 | 3490 ± 450 | 1.2 | 0.6 | IC50 (MeWo; [8]): 6280 ± 820 nM; IC50 (MeWo; [9]): 5460 ± 1080 nM; phototoxicity / reduction of proliferation at 1 µM ([3]; 1 µM, normoxia or CoCl2-induced hypoxia): very low
2 |  |  |  |  |  |  |  |  |  |  |  |  | CCCCCCCCCCCCCC(=O)Nc1ccc(-c2c3nc(c(-c4ccc[n+](C)c4)c4ccc([nH]4)c(-c4ccc[n+](C)c4)c4nc(c(-c5ccc[n+](C)c5)c5ccc2[nH]5)C=C4)C=C3)cc1 [TMPyP3-C13H27] |  |  | 4.5 | 5.4 |  |  | 1.6 | 1.9 | IC50 (A375; [10]): 220 ± 80 nM; IC50 (A375; [11]): 150 ± 60 nM; IC50 (HDF; [12]): 990 ± 50 nM; IC50 (HDF; [13]): 810 ± 50 nM; IC50 (MeWo; [14]): 610 ± 160 nM; IC50 (MeWo; [15]): 430 ± 30 nM; IC50 ([3]; with or without CoCl2, read-out: IC50 in all the tested cells): ≤ 1000 nM
3 |  |  |  |  |  |  |  |  |  |  |  |  | CCCCCCCCCC(=O)Nc1ccc(-c2c3nc(c(-c4ccc[n+](C)c4)c4ccc([nH]4)c(-c4ccc[n+](C)c4)c4nc(c(-c5ccc[n+](C)c5)c5ccc2[nH]5)C=C4)C=C3)cc1 [TMPyP3-C9H19] |  |  | 9.0 | 10.6 |  |  | 1.3 | 2.0 | IC50 (A375; [10]): 990 ± 130 nM; IC50 (A375; [11]): 670 ± 30 nM; IC50 (HDF; [12]): 8870 ± 20 nM; IC50 (HDF; [13]): 7090 ± 660 nM; IC50 (MeWo; [14]): 6810 ± 1360 nM; IC50 (MeWo; [15]): 3520 ± 650 nM
4 | 2000 | 6000 | 5800 | 19300 | 364600 | 646 | 588 | 547 | 512 | 417 | 648 | 713 | CCCCCCCCCCCCCC(=O)Nc1ccc(-c2c3nc(c(-c4ccc[n+]([O-])c4)c4ccc([nH]4)c(-c4ccc[n+]([O-])c4)c4nc(c(-c5ccc[n+]([O-])c5)c5ccc2[nH]5)C=C4)C=C3)cc1 [TOPyP3-C13H27, 5-(4-Tetradecanamidophenyl)-10,15,20-tris(1-oxido-3-pyridyl)porphyrin] | 860 ± 60 | 780 ± 170 | 3.0 | 1.1 | 2620 ± 190 | 860 ± 40 | 1.5 | 0.8 | IC50 (MeWo; [8]): 1790 ± 370 nM; IC50 (MeWo; [9]): 1040 ± 90 nM
